# In PubChem BioAssay (NCI):
#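 A five-concentration, 48-hour dose response in 96-well plates underlies each endpoint, interpolated linearly between surrounding concentrations. The concentration for 50% growth inhibition is given as GI50. The concentration for full growth arrest is given as TGI.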
# How the values were obtained:
# Assay in all cases: NCI anticancer screen, dose series, 48 h
# SNB-75 CNS = system: SNB-75 CNS
# SF-268 CNS = system: SF-268 CNS
# M14 melanoma = system: M14 melanoma
# CCRF-CEM leukemia = system: CCRF-CEM leukemia
# T-47D breast = system: T-47D breast
# SK-MEL-2 melanoma = system: SK-MEL-2 melanoma
# BT-549 breast = system: BT-549 breast
# UACC-62 melanoma = system: UACC-62 melanoma
# SW-620 colon = system: SW-620 colon
# LOX IMVI melanoma = system: LOX IMVI melanoma
# MDA-MB-468 breast = system: MDA-MB-468 breast
# HCC-2998 colon = system: HCC-2998 colon
# NCI-H522 lung = system: NCI-H522 lung
# NCI-H23 lung = system: NCI-H23 lung
# SK-MEL-28 melanoma = system: SK-MEL-28 melanoma
# COLO 205 colon = system: COLO 205 colon
# HL-60(TB) leukemia = system: HL-60(TB) leukemia
# HCT-15 colon = system: HCT-15 colon
# SNB-19 CNS = system: SNB-19 CNS
# OVCAR-5 ovarian = system: OVCAR-5 ovarian
# U251 CNS = system: U251 CNS
# HS 578T breast = system: HS 578T breast
# DU-145 prostate = system: DU-145 prostate
# A549 NSCLC = system: A549 NSCLC
# SF-295 CNS = system: SF-295 CNS
# UACC-257 melanoma = system: UACC-257 melanoma
# HOP-92 NSCLC = system: HOP-92 NSCLC
# HT29 colon = system: HT29 colon
# PC-3 prostate = system: PC-3 prostate
# EKVX NSCLC = system: EKVX NSCLC
# ACHN renal = system: ACHN renal
# K-562 leukemia = system: K-562 leukemia
# OVCAR-3 ovarian = system: OVCAR-3 ovarian
# KM12 colon = system: KM12 colon
# SK-OV-3 ovarian = system: SK-OV-3 ovarian
# UO-31 renal = system: UO-31 renal
# HOP-62 NSCLC = system: HOP-62 NSCLC
# SF-539 CNS = system: SF-539 CNS
# NCI-H226 lung = system: NCI-H226 lung
# SN12C renal = system: SN12C renal
# OVCAR-4 ovarian = system: OVCAR-4 ovarian
# OVCAR-8 ovarian = system: OVCAR-8 ovarian
# MOLT-4 leukemia = system: MOLT-4 leukemia
# SK-MEL-5 melanoma = system: SK-MEL-5 melanoma
# NCI/ADR-RES ovarian = system: NCI/ADR-RES ovarian
# TK-10 renal = system: TK-10 renal
# 786-0 renal = system: 786-0 renal
# RPMI-8226 leukemia = system: RPMI-8226 leukemia
# IGROV1 ovarian = system: IGROV1 ovarian
# MCF7 breast = system: MCF7 breast
# MDA-MB-231 breast = system: MDA-MB-231 breast
# HCT-116 colon = system: HCT-116 colon
# CAKI-1 renal = system: CAKI-1 renal
# MDA-MB-435 = system: MDA-MB-435
# NCI-H460 lung = system: NCI-H460 lung
# MALME-3M melanoma = system: MALME-3M melanoma
# SR leukemia = system: SR leukemia
# RXF 393 renal = system: RXF 393 renal
smiles,measurement,setting,value
COc1cc(NC(=O)c2cccc(C3CCc4c(cc(OC)c(OC)c4OC)O3)c2)cc(OC)c1OC (stereo not given),GI50,SNB-75 CNS,2.33 µM
same,TGI,SNB-75 CNS,7.99 µM
same,GI50,SF-268 CNS,3.78 µM
same,TGI,SF-268 CNS,> 100 µM
same,GI50,M14 melanoma,2.53 µM
same,TGI,M14 melanoma,71 µM
same,GI50,CCRF-CEM leukemia,2.75 µM
same,TGI,CCRF-CEM leukemia,> 100 µM
same,GI50,T-47D breast,2.5 µM
same,TGI,T-47D breast,9.29 µM
same,GI50,SK-MEL-2 melanoma,2.66 µM
same,TGI,SK-MEL-2 melanoma,> 100 µM
same,GI50,BT-549 breast,1.99 µM
same,TGI,BT-549 breast,8.22 µM
same,GI50,UACC-62 melanoma,1.74 µM
same,TGI,UACC-62 melanoma,8.33 µM
same,GI50,SW-620 colon,3.52 µM
same,TGI,SW-620 colon,> 100 µM
same,GI50,LOX IMVI melanoma,3.62 µM
same,TGI,LOX IMVI melanoma,> 100 µM
same,GI50,MDA-MB-468 breast,1.24 µM
same,TGI,MDA-MB-468 breast,4.41 µM
same,GI50,HCC-2998 colon,7.64 µM
same,TGI,HCC-2998 colon,> 100 µM
same,GI50,NCI-H522 lung,1.56 µM
same,TGI,NCI-H522 lung,4.63 µM
same,GI50,NCI-H23 lung,4.37 µM
same,TGI,NCI-H23 lung,> 100 µM
same,GI50,SK-MEL-28 melanoma,4.64 µM
same,TGI,SK-MEL-28 melanoma,> 100 µM
same,GI50,COLO 205 colon,2 µM
same,TGI,COLO 205 colon,5.31 µM
same,GI50,HL-60(TB) leukemia,2.04 µM
same,TGI,HL-60(TB) leukemia,5.79 µM
same,GI50,HCT-15 colon,2.7 µM
same,TGI,HCT-15 colon,> 100 µM
same,GI50,SNB-19 CNS,5.94 µM
same,TGI,SNB-19 CNS,> 100 µM
same,GI50,OVCAR-5 ovarian,5.01 µM
same,TGI,OVCAR-5 ovarian,> 100 µM
same,GI50,U251 CNS,3.6 µM
same,TGI,U251 CNS,> 100 µM
same,GI50,HS 578T breast,2.04 µM
same,TGI,HS 578T breast,6.74 µM
same,GI50,DU-145 prostate,3.83 µM
same,TGI,DU-145 prostate,> 100 µM
same,GI50,A549 NSCLC,3.91 µM
same,TGI,A549 NSCLC,> 100 µM
same,GI50,SF-295 CNS,2.46 µM
same,TGI,SF-295 CNS,> 100 µM
same,GI50,UACC-257 melanoma,3.89 µM
same,TGI,UACC-257 melanoma,> 100 µM
same,GI50,HOP-92 NSCLC,3.96 µM
same,TGI,HOP-92 NSCLC,> 100 µM
same,GI50,HT29 colon,2.46 µM
same,TGI,HT29 colon,6.07 µM
same,GI50,PC-3 prostate,2.66 µM
same,TGI,PC-3 prostate,> 100 µM
same,GI50,EKVX NSCLC,6.37 µM
same,TGI,EKVX NSCLC,> 100 µM
same,GI50,ACHN renal,3.77 µM
same,TGI,ACHN renal,> 100 µM
same,GI50,K-562 leukemia,1.75 µM
same,TGI,K-562 leukemia,> 100 µM
same,GI50,OVCAR-3 ovarian,3.42 µM
same,TGI,OVCAR-3 ovarian,> 100 µM
same,GI50,KM12 colon,3.1 µM
same,TGI,KM12 colon,> 100 µM
same,GI50,SK-OV-3 ovarian,3.65 µM
same,TGI,SK-OV-3 ovarian,> 100 µM
same,GI50,UO-31 renal,2.59 µM
same,TGI,UO-31 renal,19.2 µM
same,GI50,HOP-62 NSCLC,3.51 µM
same,TGI,HOP-62 NSCLC,> 100 µM
same,GI50,SF-539 CNS,2.13 µM
same,TGI,SF-539 CNS,5.81 µM
same,GI50,NCI-H226 lung,2.55 µM
same,GI50,SN12C renal,3.47 µM
same,TGI,SN12C renal,> 100 µM
same,GI50,OVCAR-4 ovarian,4.49 µM
same,TGI,OVCAR-4 ovarian,> 100 µM
same,GI50,OVCAR-8 ovarian,3.2 µM
same,TGI,OVCAR-8 ovarian,> 100 µM
same,GI50,MOLT-4 leukemia,2.86 µM
same,TGI,MOLT-4 leukemia,27.5 µM
same,GI50,SK-MEL-5 melanoma,1.58 µM
same,TGI,SK-MEL-5 melanoma,4.52 µM
same,GI50,NCI/ADR-RES ovarian,2.1 µM
same,TGI,NCI/ADR-RES ovarian,6.91 µM
same,GI50,TK-10 renal,4.32 µM
same,TGI,TK-10 renal,> 100 µM
same,GI50,786-0 renal,4.23 µM
same,TGI,786-0 renal,> 100 µM
same,GI50,RPMI-8226 leukemia,1.95 µM
same,TGI,RPMI-8226 leukemia,12.7 µM
same,GI50,IGROV1 ovarian,4.15 µM
same,TGI,IGROV1 ovarian,> 100 µM
same,GI50,MCF7 breast,2.29 µM
same,TGI,MCF7 breast,> 100 µM
same,GI50,MDA-MB-231 breast,4.12 µM
same,TGI,MDA-MB-231 breast,> 100 µM
same,GI50,HCT-116 colon,3.69 µM
same,TGI,HCT-116 colon,> 100 µM
same,GI50,CAKI-1 renal,2.37 µM
same,TGI,CAKI-1 renal,> 100 µM
same,GI50,MDA-MB-435,0.497 µM
same,TGI,MDA-MB-435,3.33 µM
same,GI50,NCI-H460 lung,3.24 µM
same,TGI,NCI-H460 lung,> 100 µM
same,GI50,MALME-3M melanoma,2.45 µM
same,TGI,MALME-3M melanoma,> 100 µM
same,GI50,SR leukemia,0.925 µM
same,TGI,SR leukemia,84.9 µM
same,GI50,RXF 393 renal,1.59 µM
same,TGI,RXF 393 renal,8.46 µM
